{
  "source": "ChEMBL document CHEMBL1125524",
  "about": "“Adenosine A1 antagonists. 2. Structure-activity relationships on diuretic activities and protective effects against acute renal failure” (J Med Chem, 1992)",
  "key": {"[1]": {"system": "Rattus norvegicus", "test": "Ratio of urinary excretion value (urinary volume) in treated rats to that in control rats, at a peroral dose of 0.4 mg/Kg", "type": "functional, Urine"}, "[2]": {"system": "Rattus norvegicus", "test": "Serum creatinine concentration measured after intraperitoneal administration of 1 mg/kg of compound to rats(vehicle 4.82+/-0.17)", "type": "functional"}, "[3]": {"system": "Rattus norvegicus", "test": "Effect on urinary excretion potassium and sodium after oral administration of 1.6 mg/kg to rats(potassium and sodium excretion in control rat is 0.169+/-0.012)", "type": "functional, Urine"}, "[4]": {"system": "Rattus norvegicus", "test": "Ratio of urinary excretion value (Na+ concentration) in treated rats to that in control rats, at a peroral dose of 0.4 mg/Kg", "type": "functional, Urine"}, "[5]": {"system": "Rattus norvegicus", "test": "Serum creatinine concentration measured after intraperitoneal administration of 0.01 mg/kg of compound to rats(vehicle 4.50+/-0.24)", "type": "functional"}, "[6]": {"system": "Rattus norvegicus", "test": "Oral diuretic activity was measured after oral administration of 0.4 mg/kg to rats(control volume is 1.72+/-0.31)", "type": "functional, Urine"}, "[7]": {"system": "Rattus norvegicus", "test": "Ratio of sodium ion/potassium ion concentration in treated rats to that in control rats, at a peroral dose of 1.6 mg/Kg", "type": "functional"}, "[8]": {"system": "Rattus norvegicus", "test": "Percent inhibition of serum creatinine by the compound given as ratio of Cr value in treated to vehicle treated ones after intraperitoneal administration of 1 mg/kg of compound to rats(vehicle 4.82+/-0.17)", "type": "functional", "details": "ip"}, "[9]": {"system": "Rattus norvegicus", "test": "Urea nitrogen concentration measured after intraperitoneal administration of 0.1 mg/kg of compound to rats(vehicle 141.3+/-8.3)", "type": "functional"}, "[10]": {"system": "Rattus norvegicus", "test": "Percent inhibition of Urea nitrogen by the compound given as ratio of UN value in treated to vehicle treated ones after intraperitoneal administration of 0.1 mg/kg of compound to rats(vehicle 141.3+/-8.3)", "type": "functional", "details": "ip"}, "[11]": {"molecular_target": "Adenosine A2 receptor (Rattus norvegicus, UniProt P29276+P30543)"}, "[12]": {"system": "Rattus norvegicus", "test": "Percent inhibition of serum creatinine by the compound given as ratio of Cr value in treated to vehicle treated ones after intraperitoneal administration of 0.01 mg/kg of compound to rats(vehicle 4.50+/-0.24)", "type": "functional", "details": "ip"}, "[13]": {"system": "Rattus norvegicus", "test": "Ratio of urinary excretion value (urinary volume) in treated rats to that in control rats, at a peroral dose of 1.6 mg/Kg", "type": "functional, Urine"}, "[14]": {"system": "Rattus norvegicus", "test": "Percent inhibition of serum creatinine by the compound given as ratio of Cr value in treated to vehicle treated ones after intraperitoneal administration of 0.1 mg/kg of compound to rats(vehicle 3.92+/-0.23)", "type": "functional", "details": "ip"}, "[15]": {"system": "Rattus norvegicus", "test": "Serum creatinine concentration measured after intraperitoneal administration of 0.1 mg/kg of compound to rats(vehicle 3.92+/-0.23)", "type": "functional"}, "[16]": {"system": "Rattus norvegicus", "test": "Ratio of sodium ion/potassium ion concentration in treated rats to that in control rats, at a peroral dose of 0.4 mg/Kg", "type": "functional"}, "[17]": {"system": "Rattus norvegicus", "test": "Urea nitrogen concentration measured after intraperitoneal administration of 1 mg/kg of compound to rats(vehicle 151.5+/-7.4)", "type": "functional"}, "[18]": {"system": "Rattus norvegicus", "test": "Oral diuretic activity was measured after oral administration of 1.6 mg/kg to rats(control volume is 0.97+/-0.05)", "type": "functional, Urine"}, "[19]": {"system": "Rattus norvegicus", "test": "Percent inhibition of Urea nitrogen by the compound given as ratio of UN value in treated to vehicle treated ones after intraperitoneal administration of 0.01 mg/kg of compound to rats(vehicle 130.6+/-4.12)", "type": "functional", "details": "ip"}, "[20]": {"system": "Rattus norvegicus", "test": "Percent inhibition of Urea nitrogen by the compound given as ratio of UN value in treated to vehicle treated ones after intraperitoneal administration of 1 mg/kg of compound to rats(vehicle 151.5+/-7.4)", "type": "functional", "details": "ip"}, "[21]": {"system": "Rattus norvegicus", "test": "Urea nitrogen concentration measured after intraperitoneal administration of 0.01 mg/kg of compound to rats(vehicle 130.6+/-4.12)", "type": "functional"}, "[22]": {"system": "Rattus norvegicus", "test": "Effect on urinary excretion potassium and sodium after oral administration of 0.4 mg/kg to rats(potassium and sodium excretion in control rat is 0.267+/-0.044)", "type": "functional, Urine"}, "[23]": {"system": "Rattus norvegicus", "test": "Ratio of urinary excretion value (Na+ concentration) in treated rats to that in control rats, at a peroral dose of 1.6 mg/Kg", "type": "functional, Urine"}, "[24]": {"system": "Rattus norvegicus", "test": "Percent inhibition of serum creatinine by the compound given as ratio of Cr value in treated to vehicle treated ones after intraperitoneal administration of 10 mg/kg of compound to rats(vehicle 182.5+/-3.4)", "type": "functional", "details": "ip"}, "[25]": {"system": "Rattus norvegicus", "test": "Oral diuretic activity was measured after oral administration of 1.6 mg/kg to rats(control volume is 0.69+/-0.03)", "type": "functional, Urine"}, "[26]": {"system": "Rattus norvegicus", "test": "Urea nitrogen concentration measured after intraperitoneal administration of 10 mg/kg of compound to rats(vehicle 182.5+/-3.4)", "type": "functional"}, "[27]": {"system": "Rattus norvegicus", "test": "Serum creatinine concentration measured after intraperitoneal administration of 10 mg/kg of compound to rats(vehicle 5.43+/-0.11)", "type": "functional"}, "[28]": {"system": "Rattus norvegicus", "test": "Ratio of urinary excretion value (urinary volume) in treated rats to that in control rats, at a peroral dose of 25 mg/Kg", "type": "functional, Urine"}, "[29]": {"system": "Rattus norvegicus", "test": "Oral diuretic activity was measured after oral administration of 25 mg/kg to rats(control volume is 0.91+/-0.08)", "type": "functional, Urine"}, "[30]": {"system": "Rattus norvegicus", "test": "Ratio of urinary excretion value (Na+ concentration) in treated rats to that in control rats, at a peroral dose of 6.25 mg/Kg", "type": "functional, Urine"}, "[31]": {"system": "Rattus norvegicus", "test": "Effect on urinary excretion potassium and sodium after oral administration of 25 mg/kg to rats(potassium and sodium excretion in control rat is 0.193+/-0.016)", "type": "functional, Urine"}, "[32]": {"system": "Rattus norvegicus", "test": "Effect on urinary excretion potassium and sodium after oral administration of 1.6 mg/kg to rats(potassium and sodium excretion in control rat is 0.079+/-0.007)", "type": "functional, Urine"}, "[33]": {"system": "Rattus norvegicus", "test": "Ratio of urinary excretion value (urinary volume) in treated rats to that in control rats, at a peroral dose of 6.25 mg/Kg", "type": "functional, Urine"}, "[34]": {"system": "Rattus norvegicus", "test": "Percent inhibition of Urea nitrogen by the compound given as ratio of UN value in treated to vehicle treated ones after intraperitoneal administration of 10 mg/kg of compound to rats(vehicle 182.5+/-3.4)", "type": "functional", "details": "ip"}, "[35]": {"system": "Rattus norvegicus", "test": "Ratio of sodium ion/potassium ion concentration in treated rats to that in control rats, at a peroral dose of 25 mg/Kg", "type": "functional"}, "[36]": {"system": "Rattus norvegicus", "test": "Ratio of urinary excretion value (Na+ concentration) in treated rats to that in control rats, at a peroral dose of 25 mg/Kg", "type": "functional, Urine"}},
  "note": "pKi: −log10 of the molar value.",
  "data": [
    {"smiles": "CC(C)Cn1c(=O)n(C)c(=O)c2[nH]c(C34CC5CC(CC3C5)C4)nc21", "values": [
      {"measurement": "T/C", "setting": "[1]", "value": 1.4},
      {"measurement": "Cr", "setting": "[2]", "value": 2.76, "unit": "mg/dL"},
      {"measurement": "Na", "setting": "[3]", "value": 0.409, "unit": "m equiv 6hr-1 100g-1"},
      {"measurement": "T/C", "setting": "[4]", "value": 1.38},
      {"measurement": "Cr", "setting": "[5]", "value": 3.38, "unit": "mg/dL"},
      {"measurement": "Urine volume", "setting": "[6]", "value": 2.41, "unit": "ml 6hr-1 100g-1"},
      {"measurement": "Na+/K+", "setting": "[7]", "value": 1.73},
      {"measurement": "inhibition in vivo at 1 mg/kg", "setting": "[8]", "value": 42, "unit": "%"},
      {"measurement": "UN", "setting": "[9]", "value": 70.9, "unit": "mg/dL"},
      {"measurement": "inhibition in vivo at 0.1 mg/kg", "setting": "[10]", "value": 50, "unit": "%"},
      {"measurement": "pKi", "setting": "[11]", "value": 6.07},
      {"measurement": "inhibition in vivo at 0.01 mg/kg", "setting": "[12]", "value": 25, "unit": "%"},
      {"measurement": "T/C", "setting": "[13]", "value": 2.51},
      {"measurement": "inhibition in vivo at 0.1 mg/kg", "setting": "[14]", "value": 48, "unit": "%"},
      {"measurement": "Cr", "setting": "[15]", "value": 2.04, "unit": "mg/dL"},
      {"measurement": "Na+/K+", "setting": "[16]", "value": 1.37},
      {"measurement": "UN", "setting": "[17]", "value": 74, "unit": "mg/dL"},
      {"measurement": "Urine volume", "setting": "[18]", "value": 2.43, "unit": "ml 6hr-1 100g-1"},
      {"measurement": "inhibition in vivo at 0.01 mg/kg", "setting": "[19]", "value": 12, "unit": "%"},
      {"measurement": "inhibition in vivo at 1 mg/kg", "setting": "[20]", "value": 51, "unit": "%"},
      {"measurement": "UN", "setting": "[21]", "value": 115.5, "unit": "mg/dL"},
      {"measurement": "Na", "setting": "[22]", "value": 0.367, "unit": "m equiv 6hr-1 100g-1"},
      {"measurement": "T/C", "setting": "[23]", "value": 2.43}
    ]},
    {"smiles": "Cn1c(=O)c2nc[nH]c2n(C)c1=O.O", "note": "[THEOPHYLLINE]", "values": [
      {"measurement": "inhibition in vivo at 10 mg/kg", "setting": "[24]", "value": 2, "unit": "%"},
      {"measurement": "Urine volume", "setting": "[25]", "value": 0.71, "unit": "ml 6hr-1 100g-1"},
      {"measurement": "UN", "setting": "[26]", "value": 174, "unit": "mg/dL"},
      {"measurement": "Cr", "setting": "[27]", "value": 5.32, "unit": "mg/dL"},
      {"measurement": "Na+/K+", "setting": "[7]", "value": 1.06},
      {"measurement": "T/C", "setting": "[28]", "value": 1.34},
      {"measurement": "T/C", "setting": "[13]", "value": 1.03},
      {"measurement": "Urine volume", "setting": "[29]", "value": 1.22, "unit": "ml 6hr-1 100g-1"},
      {"measurement": "T/C", "setting": "[30]", "value": 1.52},
      {"measurement": "Na", "setting": "[31]", "value": 0.417, "unit": "m equiv 6hr-1 100g-1"},
      {"measurement": "Na", "setting": "[32]", "value": 0.09, "unit": "m equiv 6hr-1 100g-1"},
      {"measurement": "T/C", "setting": "[33]", "value": 1.42},
      {"measurement": "inhibition in vivo at 10 mg/kg", "setting": "[34]", "value": 5, "unit": "%"},
      {"measurement": "Na+/K+", "setting": "[35]", "value": 1.08},
      {"measurement": "T/C", "setting": "[36]", "value": 2.16},
      {"measurement": "T/C", "setting": "[23]", "value": 1.14}
    ]}
  ]
}
